Test results as given in patent publication US4770996A, “Identification of individuals predisposed toward alcohol abuse” (priority 1986, dated 1988).

How the values were obtained:
[1] = system: platelet adenylate cyclase; test: Platelet membrane adenylate cyclase (AC) assay, 32P-ATP to 32P-cAMP; format: biochemical, human; set-up: Adenylate Cyclase Activity - CsF-Stimulated / Adenylate Cyclase Activity - CsF-Stimulated, Mean ± SD: unit not given here; conditions: for Enzyme Activity +Gpp(NH)p / Enzyme Activity +PGE1 (1 uM): mean ± SD; for Enzyme Activity +Gpp(NH)p: Gpp(NH)p 10 uM; for Adenylate Cyclase Activity - CsF-Stimulated / Adenylate Cyclase Activity - CsF-Stimulated, Mean ± SD / Enzyme Activity +CsF: CsF 10 mM
Protocol: Platelets were prepared from whole blood (20 ml) which was obtained by venipuncture from healthy volunteers and alcoholic subjects. After standing at room temperature for approximately three to four hours in citrate-phosphate-dextrose solution, each blood sample was centrifuged at 180×G for two minutes. […] The PRP was centrifuged at 16,000 g for ten minutes. The pellet was resuspended in 50 ml of cold 50 mM Tris-HCl, pH 7.5, containing […] NaCl and 20 mM ethylene diamine tetraacetic acid (EDTA). The centrifugation was repeated twice, and the final pellet was resuspended in 1 ml of cold 5 mM Tris-HCl, pH 7.5, containing 5 mM EDTA. Suspensions were rapidly frozen at -70° C., and samples were stored at -70° C. for no longer than four weeks prior to assay. AC activity was assayed by a modification of previously described methods, Hoffman and Tabakoff, J. Pharmacol. Exptl. […] Platelets were thawed at room temperature, aliquots of platelets were diluted to 4 ml with 5 mM Tris-HCl buffer containing 5 mM EDTA, and the suspension was centrifuged at 39,000×G for ten minutes at 4° C. […] The reaction was stopped by placing the tubes in a boiling water bath for three minutes. […] The ^32 p-cAMP was isolated by sequential chromatography on Dowex (Sigma Chemical Co., St. Louis, Mo.) and alumina columns (Sigma Chemical Co., St. Louis, Mo.), Salomon et. al., Anal. […] To each column effluent, 10 ml of scintilation cocktail was added, and ^32 p-cAMP was quantitated in a liquid scintillation spectrometer. All values were corrected for percentage recovery of the product (^32 p-cAMP).

[2] = target: T1, platelet monoamine oxidase (MAO) (Homo sapiens, UniProt P27338); test: Platelet monoamine oxidase (MAO) assay, deamination of 14C-PEA; format: biochemical; conditions: for Percent Inhibition by 400 mM Ethyl Alcohol / Percent Inhibition by 400 mM Ethyl Alcohol, Mean ± SD / Percent Inhibition by 400 mM ETOH: 12 uM PEA; for Percent Inhibition by 400 mM ETOH: mean ± SD
T1 construct: contained approximately 15 ug of platelet protein; from tissue; host or cells: platelets (membranes) from whole blood of volunteers and alcoholic subjects
T1 sequence (P27338 1-520): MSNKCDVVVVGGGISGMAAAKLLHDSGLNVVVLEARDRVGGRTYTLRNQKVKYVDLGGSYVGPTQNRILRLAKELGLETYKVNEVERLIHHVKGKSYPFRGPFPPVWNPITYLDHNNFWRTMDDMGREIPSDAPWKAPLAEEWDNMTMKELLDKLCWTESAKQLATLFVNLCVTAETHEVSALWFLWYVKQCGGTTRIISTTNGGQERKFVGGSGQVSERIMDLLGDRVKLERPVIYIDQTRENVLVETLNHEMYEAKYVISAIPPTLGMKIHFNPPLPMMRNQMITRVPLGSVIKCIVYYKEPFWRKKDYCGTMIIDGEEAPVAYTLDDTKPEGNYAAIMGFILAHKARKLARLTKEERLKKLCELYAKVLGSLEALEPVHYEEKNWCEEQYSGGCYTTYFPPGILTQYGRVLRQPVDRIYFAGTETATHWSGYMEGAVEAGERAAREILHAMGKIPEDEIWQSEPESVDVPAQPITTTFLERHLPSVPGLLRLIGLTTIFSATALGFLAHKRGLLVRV
Protocol: Platelets were prepared from whole blood (20 ml) which was obtained by venipuncture from healthy volunteers and alcoholic subjects. After standing at room temperature for approximately three to four hours in citrate-phosphate-dextrose solution, each blood sample was centrifuged at 180×G for two minutes. The platelet-rich plasma (PRP) was carefully removed and platelet count was determined from aliquots (20 ul) of the PRP with a Coulter S-plus Thrombocounter. The PRP was centrifuged at 16,000 g for ten minutes. The pellet was resuspended in 50 ml of cold 50 mM Tris-HCl, pH 7.5, containing […] NaCl and 20 mM ethylene diamine tetraacetic acid (EDTA). The centrifugation was repeated twice, and the final pellet was resuspended in 1 ml of cold 5 mM Tris-HCl, pH 7.5, containing 5 mM EDTA. Suspensions were rapidly frozen at -70° C., and samples were stored at -70° C. for no longer than four weeks prior to assay.
To measure the deamination of ^14 C-PEA, assay mixtures (total volume, 0.3 ml) contained approximately 15 ug of platelet protein. Reactions were carried out in 0.1 M sodium phosphate, pH 7.4, at 37° C. A five-minute preincubation period preceded the addition of substrate, and blanks were preincubated in the presence of 1×10^-3 M pargyline. Appropriate concentrations of ^14 C-PEA (10,000 dpm per nmole) were added to initiate the reaction, and the incubation was carried out for 15 minutes. The reaction was stopped by placing the tubes in an ice bath and adding 1.0 ml of ice-cold unlabeled PEA solution (10^-4 M) to each assay tube. A 1-ml aliquot was then removed from each tube and placed on an Amberlite™ ion exchange column, Tabakoff et. al., Psychopharmacol. 87:152 (1985). The columns were washed with two 1-ml portions of distilled water and the effluent was collected in scintillation vials. Two additional ml of water and 20 ml of scintillation fluid were added to each vial, and radioactivity was determined in a liquid scintillation spectrometer. To study the effects of ethanol or other alcohols on MAO activity, the alcohols were added to incubation mixtures five minutes prior to the addition of substrate.

[3] = system: platelet adenylate cyclase; conditions: Jakobs et al., J. Recep. Res. 4:443-458, 1984; cited from earlier work

Structure (SMILES): Nc1nc2c(ncn2[C@@H]2O[C@H](COP(=O)(O)OP(=O)(O)NP(=O)(O)O)[C@@H](O)[C@H]2O)c(=O)[nH]1 [Gpp(NH)p, guanylylimidodiphosphate]
- Enzyme Activity +Gpp(NH)p ([1]; platelets of Alcoholics, n=43, significant vs control): 37.8 ± 14.4 pmole cAMP/mg protein/minute
- Enzyme Activity +Gpp(NH)p ([1]; platelets of Controls, n=36): 50.4 ± 15.0 pmole cAMP/mg protein/minute
- Enzyme Activity +Gpp(NH)p ([1]; platelets of Recovering Alcoholics, n=23, significant vs control): 37.2 ± 16.5 pmole cAMP/mg protein/minute

Structure (SMILES): CCO [ethyl alcohol]
- nature of MAO inhibition by ethyl alcohol added in vitro ([2]; in vitro, amount of inhibition depended on substrate concentration): reversible and was "competitive" in nature
- Percent Inhibition by 400 mM Ethyl Alcohol ([2]; patient No. 1, Sample 1 (baseline)): 7.0%
- Percent Inhibition by 400 mM Ethyl Alcohol ([2]; patient No. 1, Sample 2 (five days later)): 7.6%
- Percent Inhibition by 400 mM Ethyl Alcohol ([2]; patient No. 1, Sample 3 (six days later)): 6.1%
- Percent Inhibition by 400 mM Ethyl Alcohol, Mean ± SD ([2]; patient No. 1, mean of 3 samples): 6.9 ± 0.8%
- Percent Inhibition by 400 mM Ethyl Alcohol ([2]; patient No. 2, Sample 1 (baseline)): 13.1%
- Percent Inhibition by 400 mM Ethyl Alcohol ([2]; patient No. 2, Sample 2 (five days later)): 7.9%
- Percent Inhibition by 400 mM Ethyl Alcohol ([2]; patient No. 2, Sample 3 (six days later)): 9.8%
- Percent Inhibition by 400 mM Ethyl Alcohol, Mean ± SD ([2]; patient No. 2, mean of 3 samples): 10.3 ± 2.6%
- Percent Inhibition by 400 mM ETOH ([2]; platelets of Alcoholics, n=54, P < 0.01 vs control): 12.6 ± 7.0%
- Percent Inhibition by 400 mM ETOH ([2]; platelets of Controls, n=28): 7.5 ± 6.9%
- Percent Inhibition by 400 mM ETOH ([2]; platelets of Recovering Alcoholics, n=22, P < 0.05 vs control): 11.4 ± 6.2%

Structure (SMILES): CCCCC[C@H](O)/C=C/[C@H]1[C@H](O)CC(=O)[C@@H]1CCCCCCC(=O)O [PGE1, prostaglandin E1]
- Enzyme Activity +PGE1 (1 uM) ([1]; platelets of Alcoholics, n=34, significant vs control): 84.4 ± 36.1 pmole cAMP/mg protein/minute
- Enzyme Activity +PGE1 (1 uM) ([1]; platelets of Controls, n=21): 115.5 ± 32.9 pmole cAMP/mg protein/minute
- Enzyme Activity +PGE1 (1 uM) ([1]; platelets of Recovering Alcoholics, n=8, significant vs control and vs alcoholics): 42.7 ± 12.8 pmole cAMP/mg protein/minute

Structure (SMILES): Nc1ncnc2c1ncn2[C@@H]1O[C@H](COP(=O)(O)OP(=O)(O)OP(=O)(O)O)[C@@H](O)[C@H]1O [Mg-adenosine triphosphate]
- maximal activity (Vmax) of adenylate cyclase ([1]; platelets of control subjects, 10 mM Mg++, varying ATP, mean±SD, n=3): 15.1±2.4 pmole cAMP produced/min/mg pro
- Km ([1]; platelets of control subjects, 10 mM Mg++, varying ATP, mean±SEM, n=3, read-out: Km of adenylate cyclase for Mg-adenosine triphosphate (ATP)): 20.1 ± 3.8 µM

Structure (SMILES): [Cs+].[F-] [CsF, cesium fluoride]
- Adenylate Cyclase Activity - CsF-Stimulated ([1]; control subject No. 5, Sample 1): 83.6
- Adenylate Cyclase Activity - CsF-Stimulated ([1]; control subject No. 5, Sample 2 (one week interval)): 69.5
- Adenylate Cyclase Activity - CsF-Stimulated ([1]; control subject No. 5, Sample 3 (one week interval)): 72.3
- Adenylate Cyclase Activity - CsF-Stimulated, Mean ± SD ([1]; control subject No. 5, mean of 3 samples): 75.1 ± 7.5
- Adenylate Cyclase Activity - CsF-Stimulated ([1]; control subject No. 6, Sample 1): 104.2
- Adenylate Cyclase Activity - CsF-Stimulated ([1]; control subject No. 6, Sample 2 (one week interval)): 98.0
- Adenylate Cyclase Activity - CsF-Stimulated ([1]; control subject No. 6, Sample 3 (one week interval)): 100.2
- Adenylate Cyclase Activity - CsF-Stimulated, Mean ± SD ([1]; control subject No. 6, mean of 3 samples): 100.8 ± 3.1
- Enzyme Activity +CsF ([1]; platelets of Alcoholics, mean (SD 27.8), n=107, significant vs control): 78.2 pmole cAMP/mg protein/minute
- Enzyme Activity +CsF ([1]; platelets of Controls, mean (SD 28.7), n=49): 97.9 pmole cAMP/mg protein/minute
- Enzyme Activity +CsF ([1]; platelets of Recovering Alcoholics, mean (SD 27.2), n=38, significant vs control): 70.6 pmole cAMP/mg protein/minute

Structure (SMILES): [Na+] [Na^+]
- effect of sodium ion on stimulation of platelet AC activity [3]: inhibits stimulation of platelet AC activity
